Assay results reported in US7563899B2, “(S)-N-methylnaltrexone” (Progenics Pharmaceuticals, Inc., priority 2005, dated 2009).

Legend:
[1] = tested on: gastrointestinal transit in rats; assay: Gastrointestinal transit (charcoal motility) in rats, alone or before morphine; type: in vivo, rat; conditions: for Mean Motility: ratio of length of charcoal transit/total intestine length, * p<0.05 vs vehicle
Protocol: F. et al J. Pharmacol. Exptl. Therap. 133: 400-408, 1961; D. E. Gmerek, et al J. Pharmacol. Exptl. Ther. 236: 8-13, 1986; and O. Yamamoto et al Neurogastroenterol. Motil. 10: 523-532, 1998.
A control group of rats received 2 mL/kg of a 0.9% saline solution (n=10). After 15 minutes, rats were subcutaneously injected with saline (1 mL/kg) or morphine (3 mg/kg). A 10% suspension of activated charcoal in 0.25% methylcellulose was administered orally at 10 mL/kg to the rats 20 minutes (±2 minutes) after the subcutaneous dose of morphine or saline. The rats were euthanized 25 minutes (±3 minutes) after receiving the charcoal and the intestines were removed and lightly stretched on moist paper along a meterstick. The small intestine from pyloric sphincter to caecum was measured and the distance traveled by the charcoal as a fraction of that length was evaluated for each rat.
Statistically significant effects were determined by ANOVA with Tukey HSD Multiple Comparison Test. Differences with p values <0.05 were considered statistically significant.
Values for charcoal motility were expressed as a percent effect and were calculated in the following manner: The individual distance traveled by the charcoal in centimeters was divided by the total length of the intestines in centimeters (pyloric sphincter to caecum) for each rat. Mean values were calculated for each group, and the percent effect was calculated using the following formula: […]

[2] = target: T1, human μ (mu, MOP) receptor (Homo sapiens, UniProt P35372); assay: cAMP assay in CHO cells expressing human mu receptor, agonist assay; type: cell-based
T1 construct: expressed in transfected cells; host or cells: CHO cells
T1 sequence (P35372 whole entry): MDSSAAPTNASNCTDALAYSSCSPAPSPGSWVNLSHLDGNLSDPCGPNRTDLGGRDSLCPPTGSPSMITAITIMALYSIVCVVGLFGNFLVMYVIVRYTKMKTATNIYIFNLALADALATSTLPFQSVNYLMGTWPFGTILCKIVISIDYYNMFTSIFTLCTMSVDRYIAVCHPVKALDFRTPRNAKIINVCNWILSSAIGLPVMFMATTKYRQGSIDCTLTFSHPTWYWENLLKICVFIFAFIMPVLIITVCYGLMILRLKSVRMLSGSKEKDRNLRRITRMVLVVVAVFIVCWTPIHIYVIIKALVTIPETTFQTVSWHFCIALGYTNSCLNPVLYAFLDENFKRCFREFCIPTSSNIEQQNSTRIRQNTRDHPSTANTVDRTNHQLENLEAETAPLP

[3] = target: μ-opioid receptors in the guinea pig ileum (Cavia porcellus, UniProt A0ACM8Q262); assay: Guinea pig ileum bioassay, test for agonist activity (inhibition of electrically evoked twitch contractions); conditions: mean, n=2; for Response to the compound (decrease in twitch contraction amplitude): percent of control response to DAMGO 1.0E−07 M
μ-opioid receptors in the guinea pig ileum, sequence (A0ACM8Q262 1-400): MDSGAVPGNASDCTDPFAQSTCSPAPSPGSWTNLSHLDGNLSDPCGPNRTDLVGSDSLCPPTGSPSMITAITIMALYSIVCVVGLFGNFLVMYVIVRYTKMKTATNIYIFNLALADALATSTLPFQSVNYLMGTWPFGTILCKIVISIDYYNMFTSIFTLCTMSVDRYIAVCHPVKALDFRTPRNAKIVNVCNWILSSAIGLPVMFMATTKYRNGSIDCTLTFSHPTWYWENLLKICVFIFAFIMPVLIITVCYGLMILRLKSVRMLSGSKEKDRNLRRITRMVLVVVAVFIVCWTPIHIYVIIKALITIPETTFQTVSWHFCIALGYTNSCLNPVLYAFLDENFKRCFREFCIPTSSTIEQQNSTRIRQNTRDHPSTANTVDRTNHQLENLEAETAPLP
Protocol: Experimental Conditions. Segments of guinea pig terminal ileum were suspended in 20-ml organ baths filled with an oxygenated (95% O2 and 5% CO2) and pre-warmed (37° C.) physiological salt solution of the following composition (in mM): NaCl 118.0, KCl 4.7, MgSO4 1.2, CaCl2 2.5, KH2PO4 1.2, NaHCO3 25.0 and glucose 11.0 (pH 7.4). Additional experimental conditions were as described in Hutchinson et al. (1975) Brit. J. Pharmacol., 55: 541-546.
Indomethacin (1 μM), nor-binaltorphimine (0.01 μM), methysergide (1 μM), ondansetron (10 μM) and GR113808 (0.1 μM) were also present throughout the experiments to prevent prostanoid release and to block the k-opioid, 5-HT2, 5-HT3 and 5-HT4 receptors, respectively. The tissues were connected to force transducers for isometric tension recordings. They were stretched to a resting tension of 1 g then allowed to equilibrate for 60 min during which time they were washed repeatedly and the tension readjusted. Thereafter, they were stimulated electrically with pulses of minimal intensity to trigger maximal contractions and 1 ms duration, delivered at 0.1 Hz by a constant current stimulator.
Test for agonist activity. […] The different concentrations were added cumulatively and each was left in contact with the tissues until a stable response was obtained or for a maximum of 15 min.
Analysis and Expression of Results. The parameter measured was the maximum change in the amplitude of the electrically-evoked twitch contractions induced by each compound concentration.

[4] = 1 mg/kg sc + Morphine 3 mg/kg sc
[5] = 3 mg/kg sc + Morphine 3 mg/kg sc
[6] = 10 mg/kg sc + Morphine 3 mg/kg sc

CN1CC[C@]23c4c5ccc(O)c4O[C@H]2[C@@H](O)C=C[C@H]3[C@H]1C5 [Morphine, morphine]
Percent Decrease ([1]; Saline + Morphine 3 mg/kg sc): 33% | Mean Motility ([1]; Saline + Morphine 3 mg/kg sc): 0.407* | effect on GI transit when administered alone ([1]; rats, sc): decreased GI motility

C[C@@H](NC(=O)[C@@H](N)Cc1ccc(O)cc1)C(=O)NCC(=O)N(C)[C@@H](Cc1ccccc1)C(=O)NCCO [DAMGO, reference compound]
cAMP agonist assay value (Table IX.1) ([2]; log{M} conc −4.0): −1 | cAMP agonist assay value (Table IX.1) ([2]; log{M} conc −5.0): 2 | cAMP agonist assay value (Table IX.1) ([2]; log{M} conc −6.0): 1 | cAMP agonist assay value (Table IX.1) ([2]; log{M} conc −7.0): 2 | cAMP agonist assay value (Table IX.1) ([2]; log{M} conc −8.0): 68 | cAMP agonist assay value (Table IX.1) ([2]; log{M} conc −9.0): 63 | cAMP agonist assay value (Table IX.1) ([2]; log{M} conc −10.0): 88 | cAMP agonist assay value (Table IX.1) ([2]; log{M} conc −11.0): 105 | Response to the compound (decrease in twitch contraction amplitude) ([3]; 1.0E−07 M): 99% | Response to the compound (decrease in twitch contraction amplitude) ([3]; 1.0E−08 M): 49% | Response to the compound (decrease in twitch contraction amplitude) ([3]; 1.0E−09 M): 12% | Response to the compound +naloxone ([3]; compound 1.0E−07 M + naloxone 1.0E−07 M, percent of control response to DAMGO): 3%

C[N+]1(CC2CC2)CC[C@]23c4c5ccc(O)c4O[C@H]2C(=O)CC[C@@]3(O)[C@H]1C5 (stereo partly drawn) [R-MNTX, (R)-N-methylnaltrexone]
Percent Decrease [1, 4]: 24% | Mean Motility [1, 4]: 0.463* | Percent Decrease [1, 5]: 8% | Mean Motility [1, 5]: 0.558 | Percent Decrease [1, 6]: 8% | Mean Motility [1, 6]: 0.557 | Percent Decrease ([1]; 10 mg/kg sc + Saline): 6% | Mean Motility ([1]; 10 mg/kg sc + Saline): 0.572 | effect on GI transit in combination with / prior to morphine ([1]; rats, sc, 15 minutes before morphine 3 mg/kg): reversed the GI slowing effect of morphine | effect on GI transit when administered alone ([1]; rats, sc): no effect on GI transit
